Reference: PubChem BioAssay AID330 (DTP/NCI, 2004)
Several values for one entry are separate records, joined by “and”; a condition that tells them apart may be missing. Identical values can stand only once. Toxic doses and inconclusive results are not listed. Rule for the calls: active = survival T/C of 150% or more; inactive = T/C below 125% in these data.

Test system: P388 leukemia ip, CD2F1 mice, survival T/C
Experiment: NCI In Vivo Anticancer Drug Screen. Data for tumor model P388 Leukemia (intraperitoneal) in CD2F1 (CDF1) mice
Conditions: endpoint: median survival time, vehicle: saline, higher = longer survival
Summary of the method: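 Mice carrying the transplanted tumor received test compound or vehicle. Survival was recorded in each group, and the value is the treated-group measurement divided by that of the vehicle-treated control group.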

Measured: T/C

O=C1OC(C(O)CO)C(O)=C1O (centres undefined)
inactive: dose: 0.05 mg/kg/injection, schedule: Q01DX005 (iv) 108 % of control | dose: 0.05 mg/kg/injection, schedule: Q01DX009 (im) 100 % of control | dose: 0.05 mg/kg/injection, schedule: Q01DX009 (oral) 100 % of control | dose: 0.1 mg/kg/injection, schedule: Q01DX005 (iv) 117 % of control | dose: 0.1 mg/kg/injection, schedule: Q01DX009 (im) 100 % of control | dose: 0.1 mg/kg/injection, schedule: Q01DX009 (oral) 100 % of control and 104 % of control | dose: 0.1 mg/kg/injection, schedule: Q01DX009 (sc) 109 % of control | dose: 0.1 mg/kg/injection, schedule: Q08HX010 (ip) 99 % of control | dose: 0.2 mg/kg/injection, schedule: Q01DX005 (iv) 104 % of control | dose: 0.2 mg/kg/injection, schedule: Q01DX009 (im) 100 % of control | dose: 0.2 mg/kg/injection, schedule: Q01DX009 (oral) 100 % of control | dose: 0.2 mg/kg/injection, schedule: Q01DX009 (sc) 109 % of control | dose: 0.2 mg/kg/injection, schedule: Q08HX010 (ip) 99 % of control | dose: 0.39 mg/kg/injection, schedule: Q01DX005 (iv) 113 % of control | dose: 0.39 mg/kg/injection, schedule: Q01DX009 (im) 104 % of control | dose: 0.39 mg/kg/injection, schedule: Q01DX009 (oral) 100 % of control and 108 % of control | dose: 0.39 mg/kg/injection, schedule: Q01DX009 (sc) 100 % of control | dose: 0.4 mg/kg/injection, schedule: Q08HX010 (ip) 99 % of control | dose: 0.78 mg/kg/injection, schedule: Q01DX005 (iv) 104 % of control | dose: 0.78 mg/kg/injection, schedule: Q01DX009 (im) 104 % of control | dose: 0.78 mg/kg/injection, schedule: Q01DX009 (oral) 100 % of control and 95 % of control | dose: 0.78 mg/kg/injection, schedule: Q01DX009 (sc) 109 % of control | dose: 1.56 mg/kg/injection, schedule: Q01DX005 (iv) 104 % of control | dose: 1.56 mg/kg/injection, schedule: Q01DX009 (im) 100 % of control | dose: 1.56 mg/kg/injection, schedule: Q01DX009 (oral) 100 % of control and 104 % of control | dose: 1.56 mg/kg/injection, schedule: Q01DX009 (sc) 100 % of control | dose: 3.13 mg/kg/injection, schedule: Q01DX005 (iv) 104 % of control | dose: 3.13 mg/kg/injection, schedule: Q01DX009 (im) 104 % of control | dose: 3.13 mg/kg/injection, schedule: Q01DX009 (oral) 100 % of control and 116 % of control | dose: 3.13 mg/kg/injection, schedule: Q01DX009 (sc) 100 % of control | dose: 6.25 mg/kg/injection, schedule: Q01DX005 (iv) 104 % of control | dose: 6.25 mg/kg/injection, schedule: Q01DX009 (im) 104 % of control | dose: 6.25 mg/kg/injection, schedule: Q01DX009 (oral) 100 % of control and 112 % of control | dose: 6.25 mg/kg/injection, schedule: Q01DX009 (sc) 95 % of control | dose: 10.0 mg/kg/injection, schedule: Q01DX005 (ip) 100 % of control | dose: 12.5 mg/kg/injection, schedule: Q01DX005 (iv) 104 % of control | dose: 12.5 mg/kg/injection, schedule: Q01DX009 (im) 109 % of control | dose: 12.5 mg/kg/injection, schedule: Q01DX009 (oral) 100 % of control and 108 % of control | dose: 12.5 mg/kg/injection, schedule: Q01DX009 (sc) 104 % of control | dose: 20.0 mg/kg/injection, schedule: Q01DX005 (ip) 100 % of control | dose: 25.0 mg/kg/injection, schedule: Q01DX005 (iv) 104 % of control | dose: 25.0 mg/kg/injection, schedule: Q01DX009 (im) 100 % of control | dose: 25.0 mg/kg/injection, schedule: Q01DX009 (oral) 100 % of control and 104 % of control | dose: 25.0 mg/kg/injection, schedule: Q01DX009 (sc) 100 % of control | dose: 40.0 mg/kg/injection, schedule: Q01DX005 (ip) 103 % of control | dose: 50.0 mg/kg/injection, schedule: Q01DX005 (iv) 117 % of control | dose: 50.0 mg/kg/injection, schedule: Q01DX009 (im) 109 % of control | dose: 50.0 mg/kg/injection, schedule: Q01DX009 (oral) 100 % of control and 108 % of control | dose: 50.0 mg/kg/injection, schedule: Q01DX009 (sc) 100 % of control | dose: 60.0 mg/kg/injection, schedule: Q01DX005 (ip) 100 % of control | dose: 100.0 mg/kg/injection, schedule: Q01DX005 (iv) 100 % of control | dose: 100.0 mg/kg/injection, schedule: Q01DX009 (im) 104 % of control | dose: 100.0 mg/kg/injection, schedule: Q01DX009 (oral) 100 % of control | dose: 100.0 mg/kg/injection, schedule: Q01DX009 (sc) 100 % of control | dose: 120.0 mg/kg/injection, schedule: Q01DX005 (ip) 102 % of control | dose: 200.0 mg/kg/injection, schedule: Q01DX005 (iv) 104 % of control | dose: 200.0 mg/kg/injection, schedule: Q01DX009 (im) 104 % of control | dose: 200.0 mg/kg/injection, schedule: Q01DX009 (oral) 100 % of control and 104 % of control | dose: 200.0 mg/kg/injection, schedule: Q01DX009 (sc) 90 % of control | dose: 250.0 mg/kg/injection, schedule: Q01DX005 (ip) 86 % of control | dose: 300.0 mg/kg/injection, schedule: Q08HX010 (ip) 99 % of control | dose: 400.0 mg/kg/injection, schedule: Q01DX005 (iv) 100 % of control | dose: 400.0 mg/kg/injection, schedule: Q01DX009 (im) 100 % of control | dose: 400.0 mg/kg/injection, schedule: Q01DX009 (ip) 110 % of control and 77 % of control | dose: 400.0 mg/kg/injection, schedule: Q01DX009 (oral) 108 % of control and 95 % of control | dose: 400.0 mg/kg/injection, schedule: Q01DX009 (sc) 104 % of control | dose: 500.0 mg/kg/injection, schedule: Q01DX005 (ip) 86 % of control | dose: 600.0 mg/kg/injection, schedule: Q08HX010 (ip) 102 % of control and 94 % of control | dose: 800.0 mg/kg/injection, schedule: Q01DX009 (im) 100 % of control | dose: 800.0 mg/kg/injection, schedule: Q01DX009 (ip) 99 % of control and 94 % of control | dose: 800.0 mg/kg/injection, schedule: Q01DX009 (oral) 100 % of control and 108 % of control | dose: 800.0 mg/kg/injection, schedule: Q01DX009 (sc) 95 % of control | dose: 1000.0 mg/kg/injection, schedule: Q01DX005 (ip) 87 % of control | dose: 1200.0 mg/kg/injection, schedule: Q01DX009 (ip) 110 % of control | dose: 1200.0 mg/kg/injection, schedule: Q08HX010 (ip) 101 % of control and 94 % of control | dose: 1600.0 mg/kg/injection, schedule: Q01DX009 (im) 100 % of control | dose: 1600.0 mg/kg/injection, schedule: Q01DX009 (ip) 102 % of control and 61 % of control | dose: 1600.0 mg/kg/injection, schedule: Q01DX009 (oral) 100 % of control and 91 % of control | dose: 1600.0 mg/kg/injection, schedule: Q01DX009 (sc) 104 % of control
